Measurements from patent US11591366B2, “Macrocyclic compounds and methods of preventing or treating pain” (SOCPRA SCIENCES SANTÉ ET HUMAINES S.E.C., priority 2017, dated 2023).
Like-named read-outs stand apart in the source and are kept apart here. One block for each compound: values may come before it. Numbered stars: 1 amine (or outer) side, 2 acyl side, 3 side chain; on linkers, the order of the positions; unused ones are H or OH. Square brackets hold non-standard residues; d marks the D form. Peptide text beside a SMILES is read from it. X3 = NCCCC[C@H](N)CN([C@@H](CCCCN)C(=O)[*:2])[*:1]; Tle = CC(C)(C)[C@H](N)C(=O)O

Columns and labels:
rNTS2 receptor = target: T1, rNTS2 receptor (Rattus norvegicus, UniProt Q63384); assay: Competitive radioligand binding assay on the rNTS2 receptor; conditions: for inhibition at 1 µM: 1 μM macrocycle dose, read-out: NTS2 % displ at 1 μM (radiolabeled neurotensin displaced); for IC50: 125I-[Tyr3]-NT competition, rNTS2 membranes, read-out: NTS2 IC50
T1 construct: expressed in transfected cells; host or cells: DRG-F11 cells, transient transfection, membranes
T1 sequence (Q63384 1-416): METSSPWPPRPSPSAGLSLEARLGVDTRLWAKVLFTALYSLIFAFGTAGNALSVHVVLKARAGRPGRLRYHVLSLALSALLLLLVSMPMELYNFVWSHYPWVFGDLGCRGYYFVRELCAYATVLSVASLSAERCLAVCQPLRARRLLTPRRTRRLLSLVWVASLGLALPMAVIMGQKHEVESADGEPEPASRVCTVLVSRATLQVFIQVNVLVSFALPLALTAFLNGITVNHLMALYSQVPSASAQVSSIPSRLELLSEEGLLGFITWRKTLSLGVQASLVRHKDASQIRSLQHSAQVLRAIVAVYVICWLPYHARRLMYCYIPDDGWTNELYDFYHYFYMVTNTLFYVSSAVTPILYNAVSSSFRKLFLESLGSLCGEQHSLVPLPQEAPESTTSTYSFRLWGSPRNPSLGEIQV
Procedure: DRG-F11 cells were cultured in DMEM supplemented with 10% FBS, 100 U/mL penicillin, 100 μg/mL streptomycin, and 20 mM HEPES.
Membranes were prepared by scraping cells off the culture dish with 50 mM Tris ph 7.5 and centrifuged at 15,000 g for 5 min at 4° C. The pellet was resuspended in 10 mM Tris, 1 mM EDTA pH 7.5 and sonicated for 30 s prior to be centrifugated at 15,000 g for 30 min at 4° C. The pellet was then re-suspended in binding 9 buffer. […] All other steps in binding experiments were unchanged comparing to the one using the NTS1 receptor.

Plasma stability assay = type: in vitro ADME; conditions: rat plasma at 37° C.
Procedure: Rat plasma was obtained by centrifugation of rat blood (13000 rpm, 5 min, 4° C.). […] Proteolytic degradation was quenched by adding 70 μL of acetonitrile/ethanol (1:1), 0.5% nicotinamide solution and vortexing. […] Data were analyzed using GraphPad Prism 7's one phase decay equation.

hNTS1 receptor = hNTS1 receptor (Homo sapiens, UniProt P30989); assay: Competitive radioligand binding assay on the hNTS1 receptor; conditions: 125I-[Tyr3]-NT competition, hNTS1 membranes; mean ± SEM; read-out: NTS1 IC50
Procedure: CHO-K1 (Chinese Hamster Ovary) cells stably expressing hNTS1 (ES-690-C from PerkinElmer, Montréal, Canada) were cultured in DMEM F12 culture medium at 37° C. in a humidified chamber under 5% CO2. Culture media were supplemented with 10% FBS, 100 U/mL penicillin, 100 μg/mL streptomycin, 20 mM HEPES, and 0.4 mg/mL G418 at 37° C.
Cells were frozen when they reached 80% confluency. They were scrapped off the dish with 10 mM Tris buffer, 1 mM EDTA, pH 7.5 and centrifuged at 15,000 g for 5 min at 4° C. The pellet was then re-suspended in binding buffer.
Competitive radioligand binding experiments were performed by incubating 15 μg of cell membranes expressing the hNTS1 receptor with 45 pM of ^125I-[Tyr^3]-NT (2200 Ci/mmol purchased from PerkinElmer, Billerica, Mass.) in binding buffer (50 mM Tris-HCl, pH7.5, 0.2% BSA) in the presence of increasing concentrations of the compounds of the invention ranging from 10^−11 to 10^−4 M for 60 min at 25° C. […] Glass filters were then counted using a γ-counter (2470 Wizard2, PerkinElmer, Missisauga, Ontario, Canada).
IC50 (Inhibitory Concentration 50) values were determined from the competition curves as the unlabeled ligand concentration inhibiting half of the ^125I-[Tyr]-NT-specific binding. […]

[1] = target: T2, hNTS1 (β-arrestin 2 recruitment) (Homo sapiens, UniProt P30989); assay: BRET biosensor assay, β-arrestin 2 recruitment; type: cell-based
T2 construct: expressed in transfected cells; host or cells: CHO-K1, transient transfection with PEI
Procedure: CHO-K1 cells were cultured in DMEM-F12 supplemented with 10% FBS, 100 U/mL penicillin, 100 μg/mL streptomycin, and 20 mM HEPES at 37° C. in a humidified chamber at 5% CO2. Cells were seeded into T75 flasks at a density of 20 000 cells/cm^2; 24 h later, cells were transfected with plasmids coding for hNTS1-Green fluorescent protein 10(GFP10)/Rluc (Renilla Luciferase)II-β-arrestin 1 or hNTS1-GFP10/RlucII-β-arrestin2, or with hNTS1/Gαq-RlucII/Gβ1/IGFP10-Gγ1 or hNTS1/Gα13-RlucII/Gβ1/GFP10-Gγ1 using polyethylenimine (PEI). Cells were transferred into 96-well plates at a concentration of 50 000 cells/well 24 h after transfection and incubated at 37° C. overnight. They were then washed with PBS and 90 μL HBSS was added in each well. […] After stimulation, coelenterazine 400A was added in each well to a final concentration of 5 μM and the plate was read using filter selected for BRET2 measurement (BRET2 High efficiency filter set, λemRlucII: 410±80 nm, λemGFP10: 515±40 nm) on a Mithras 2 plate reader (Berthold Technologies, Tennessee, USA). BRET2 ratio was determined as GFP10em/RlucIIem. […] EC50 (Effective Concentration 50) values were determined using the dose response-stimulation log(agonist) vs response (three parameters) and represent the mean±SEM of at least three separate experiments, each performed in triplicate.
NTS1 is capable of activating several signaling pathways, thus the activation of Gαq, Gα13, β-arrestin 1 and β-arrestin 2 pathways was monitored. The ability of compounds of the invention to activate the NTS1 receptor was assessed using Bioluminescence Resonance Energy Transfer (BRET)-based biosensors, reporting the dissociation of G proteins (Table III, column EC50 Gq) and the recruitment of β-arrestins to the receptor (Table III, column EC50 βarr).

rats = assay: Blood pressure (hypotension); type: in vivo, rat; conditions: 0.01 mg/kg; for Arterial blood pressure response / Blood pressure drop, first phase / Blood pressure in phase 3: rat, i.v.
Procedure: Mean, systolic and diastolic arterial blood pressure and a heart rate were measured through a catheter (PE 50 filled with heparinized saline) inserted in the right carotid artery and connected to a Micro-Med™ transducer (model TDX-300, USA) linked to a blood pressure Micro-Med™ analyzer (model BPA-100c). Another catheter (PE 10 filled with heparinized saline) was inserted in the left jugular vein for injection of test compounds at 0.01 mg/kg (volume 1 mL/kg, 5-10 s) or 0.9% saline. Blood pressure was recorded each second for up to 900 seconds following intravenous injection.

[2] = target: T3, hNTS1 (β-arrestin 1 recruitment) (Homo sapiens, UniProt P30989); assay: BRET biosensor assay, β-arrestin 1 recruitment; type: cell-based; conditions: CHO-K1 cells transiently transfected with hNTS1 and biosensors, mean ± SEM, read-out: EC50 β-arr1
T3 construct: expressed in transfected cells; host or cells: CHO-K1, transient transfection with PEI
Procedure: CHO-K1 cells were cultured in DMEM-F12 supplemented with 10% FBS, 100 U/mL penicillin, 100 μg/mL streptomycin, and 20 mM HEPES at 37° C. in a humidified chamber at 5% CO2. Cells were seeded into T75 flasks at a density of 20 000 cells/cm^2; 24 h later, cells were transfected with plasmids coding for hNTS1-Green fluorescent protein 10(GFP10)/Rluc (Renilla Luciferase)II-β-arrestin 1 or hNTS1-GFP10/RlucII-β-arrestin2, or with hNTS1/Gαq-RlucII/Gβ1/IGFP10-Gγ1 or hNTS1/Gα13-RlucII/Gβ1/GFP10-Gγ1 using polyethylenimine (PEI). Cells were transferred into 96-well plates at a concentration of 50 000 cells/well 24 h after transfection and incubated at 37° C. overnight. […] After stimulation, coelenterazine 400A was added in each well to a final concentration of 5 μM and the plate was read using filter selected for BRET2 measurement (BRET2 High efficiency filter set, λemRlucII: 410±80 nm, λemGFP10: 515±40 nm) on a Mithras 2 plate reader (Berthold Technologies, Tennessee, USA). BRET2 ratio was determined as GFP10em/RlucIIem. […] EC50 (Effective Concentration 50) values were determined using the dose response-stimulation log(agonist) vs response (three parameters) and represent the mean±SEM of at least three separate experiments, each performed in triplicate.
NTS1 is capable of activating several signaling pathways, thus the activation of Gαq, Gα13, β-arrestin 1 and β-arrestin 2 pathways was monitored. […]

[3] = 24 h is the longest time tested
[4] = BRET, CHO-K1 cells transiently transfected with hNTS1 and biosensors, mean ± SEM, read-out: EC50 β-arr2

T2 sequence (P30989 whole entry): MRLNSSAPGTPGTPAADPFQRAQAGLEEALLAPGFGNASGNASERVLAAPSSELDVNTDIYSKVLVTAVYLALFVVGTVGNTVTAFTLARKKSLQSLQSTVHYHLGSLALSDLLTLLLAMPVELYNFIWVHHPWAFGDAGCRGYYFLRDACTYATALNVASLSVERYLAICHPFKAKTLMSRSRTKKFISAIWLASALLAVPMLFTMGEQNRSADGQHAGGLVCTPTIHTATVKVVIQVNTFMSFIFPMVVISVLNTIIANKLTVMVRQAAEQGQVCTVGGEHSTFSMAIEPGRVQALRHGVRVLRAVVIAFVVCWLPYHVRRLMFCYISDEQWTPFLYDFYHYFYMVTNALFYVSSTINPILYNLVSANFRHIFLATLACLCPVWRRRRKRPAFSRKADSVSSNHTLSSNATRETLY
T2 sequence (P32121 whole entry partner): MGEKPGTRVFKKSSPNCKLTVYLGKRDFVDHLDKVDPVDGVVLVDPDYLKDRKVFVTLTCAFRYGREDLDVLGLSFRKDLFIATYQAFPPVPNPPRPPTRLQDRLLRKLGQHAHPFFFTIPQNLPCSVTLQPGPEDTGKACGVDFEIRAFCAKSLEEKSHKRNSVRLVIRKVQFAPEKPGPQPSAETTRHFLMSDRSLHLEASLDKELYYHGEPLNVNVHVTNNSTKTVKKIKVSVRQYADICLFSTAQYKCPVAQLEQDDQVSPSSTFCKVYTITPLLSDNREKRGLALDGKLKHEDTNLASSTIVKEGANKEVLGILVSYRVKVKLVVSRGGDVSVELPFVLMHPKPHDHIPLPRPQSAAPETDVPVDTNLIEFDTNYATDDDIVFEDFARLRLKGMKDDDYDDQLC
Sequence of hNTS1 receptor (P30989 whole entry): as the sequence (P30989 whole entry) above
T3 sequence (P30989 whole entry): as above
T3 sequence (P49407 whole entry partner): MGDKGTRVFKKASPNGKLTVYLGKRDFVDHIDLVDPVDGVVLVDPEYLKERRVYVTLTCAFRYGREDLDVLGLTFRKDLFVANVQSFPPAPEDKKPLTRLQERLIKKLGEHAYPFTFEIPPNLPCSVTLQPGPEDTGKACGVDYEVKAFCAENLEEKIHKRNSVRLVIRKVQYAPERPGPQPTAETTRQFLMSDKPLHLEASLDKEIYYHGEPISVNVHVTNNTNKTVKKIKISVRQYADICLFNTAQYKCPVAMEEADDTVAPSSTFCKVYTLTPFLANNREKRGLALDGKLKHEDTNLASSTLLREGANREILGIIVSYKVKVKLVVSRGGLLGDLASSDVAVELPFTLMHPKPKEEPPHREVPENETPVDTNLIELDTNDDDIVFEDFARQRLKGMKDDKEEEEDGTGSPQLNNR

inhibition at 1 µM (rNTS2 receptor): 104% | half-life at […] (Plasma stability assay): 15 min
Structure (SMILES): CCC(C)[C@H](NC(=O)[C@@H]1Cc2ccc(O)c(c2)CC=CCCNCCCC[C@H](N)C(=O)N[C@@H](CCCCN)C(=O)N2CCC[C@H]2C(=O)N1)C(=O)N[C@@H](CC(C)C)C(=O)O (stereo partly drawn) [Compound 9, c[K(butenyl)KPY(All)]IL]

inhibition at 1 µM (rNTS2 receptor): 100% | half-life at […] (Plasma stability assay): 3 min
Structure (SMILES): CCC(C)[C@H](NC(=O)[C@H](Cc1ccc(O)cc1)NC(=O)[C@@H]1CCCN1C(=O)[C@H](CCCNC(=N)N)NC(=O)[C@@H](N)CCCNC(=N)N)C(=O)N[C@@H](CC(C)C)C(=O)O (stereo partly drawn) [NT 8-13, RRPYIL, reference compound]

inhibition at 1 µM (rNTS2 receptor): 96% | IC50 (rNTS2 receptor): 511 nM | half-life at […] (Plasma stability assay; [3]): 84 min
Structure (SMILES): CCC(C)[C@H](NC(=O)[C@@H]1Cc2ccc(O)c(c2)CC=CCN(S(=O)(=O)c2ccccc2[N+](=O)[O-])CCCC[C@H](N)C(=O)N[C@@H](CCCCN)C(=O)N2CCC[C@H]2C(=O)N1)C(=O)N[C@@H](CC(C)C)C(=O)O (stereo partly drawn) [Compound 5, c[K(All)(S(O)2(o-nitrophenyl))KPY(All)]IL]

Plasma half-life (Plasma stability assay): 0.083 h
Structure (SMILES): C=CCNCCCC[C@H](N)C(=O)N[C@@H](CCCCN)C(=O)N1CCC[C@H]1C(=O)N[C@@H](Cc1ccc(O)c(CC=C)c1)C(=O)N[C@H](C(=O)N[C@@H](CC(C)C)C(=O)O)C(C)CC (stereo partly drawn) [Compound 2-L, K(All)KPY(All)IL]

inhibition at 1 µM (rNTS2 receptor): 105% | half-life at […] (Plasma stability assay): 18 min
Structure (SMILES): CCC(C)[C@H](NC(=O)[C@@H]1Cc2ccc(O)c(c2)CC=CCCCNCCCC[C@H](N)C(=O)N[C@@H](CCCCN)C(=O)N2CCC[C@H]2C(=O)N1)C(=O)N[C@@H](CC(C)C)C(=O)O (stereo partly drawn) [Compound 10, c[K(pentenyl)KPY(All)]IL]

Continued, compound first:

Structure (SMILES): CCC(C)[C@H](NC(=O)[C@@H]1Cc2ccc(O)c(c2)CC=CCNCCCC[C@@H](N)C(=O)N[C@@H](CCCCN)C(=O)N2CCC[C@H]2C(=O)N1)C(=O)N[C@@H](CC(C)C)C(=O)O (stereo partly drawn) [Compound 4, c[K(All)KPY(All)]IL]
inhibition at 1 µM (rNTS2 receptor): 93% | Plasma half-life (Plasma stability assay; [3]): 24 h

Structure (SMILES): CCC(C)[C@H](NC(=O)[C@H]1Cc2ccc(O)c(c2)CC=CCCCCCC[C@](C)(N)C(=O)N[C@@H](CCCCN)C(=O)N2CCC[C@H]2C(=O)N1)C(=O)N[C@@H](CC(C)C)C(=O)O (stereo partly drawn) [Compound 12, c[OctenylAKPY(All)]IL]
IC50 (rNTS2 receptor): 1100 nM | IC50 (hNTS1 receptor): > 10000 nM

Structure (SMILES): CCC(C)[C@H](NC(=O)[C@@H]1Cc2ccc(O)c(c2)CC=CCCCCCCC(=O)N[C@@H](CCCCN)C(=O)N2CCC[C@H]2C(=O)N1)C(=O)NC(CC(C)C)C(=O)O (stereo partly drawn) [Compound 1, c[nonenoic acid KPY(All)]IL]
half-life at […] (Plasma stability assay; [3]): 720 min | EC50 [1, 4]: 1370 ± 126 nM

Structure (SMILES): CCC(C)[C@H](NC(=O)[C@@H]1Cc2ccc(O)c(c2)CC=CCNCC[C@H](N)C(=O)N[C@@H](CCCCN)C(=O)N2CCC[C@H]2C(=O)N1)C(=O)N[C@@H](CC(C)C)C(=O)O (stereo partly drawn) [Compound 8, c[Dab(All)KPY(All)]IL]
inhibition at 1 µM (rNTS2 receptor): 64% | half-life at […] (Plasma stability assay; [3]): 150 min

Structure (SMILES): CCC(C)[C@H](NC(=O)[C@@H]1Cc2ccc(O)c(c2)CC=CCCCCCCC(=O)N[C@@H](CCCNC(=N)N)C(=O)N2CCC[C@H]2C(=O)N1)C(=O)N[C@@H](CC(C)C)C(=O)O (stereo partly drawn) [Compound 11, c[nonenoic acid-RPY(All)]IL]
inhibition at 1 µM (rNTS2 receptor): 78%

Structure (SMILES): CCC(C)[C@H](NC(=O)[C@@H]1Cc2ccc(O)c(c2)CC=CCCCCCC[C@](C)(N)C(=O)N[C@@H](CCCCN)C(=O)N2CCC[C@H]2C(=O)N1)C(=O)N[C@@H](CC(C)C)C(=O)O (stereo partly drawn) [Compound 3, c[OctenylAKPY(All)]IL]
Hypotension (I.V.) (rats): Triphasique | Arterial blood pressure response (rats): triphasic | Blood pressure drop, first phase (rats): about −25 mmHg | Blood pressure in phase 3 (rats): slowly returned towards baseline | inhibition at 1 µM (rNTS2 receptor): 96% | IC50 (rNTS2 receptor): 25.8 nM | Plasma half-life (Plasma stability assay; [3]): 24 h | EC50 [1]: 28 ± 0.1 nM

Structure (SMILES): CCC(C)[C@H](NC(=O)[C@@H]1Cc2ccc(O)c(c2)CC=CCNCCCCCC(=O)N[C@@H](CCCCN)C(=O)N2CCC[C@H]2C(=O)N1)C(=O)N[C@@H](CC(C)C)C(=O)O (stereo partly drawn) [Compound 6, c[aminohex-6-enoic acid(All)KPY(All)]IL]
inhibition at 1 µM (rNTS2 receptor): 93% | Plasma half-life (Plasma stability assay; [3]): 24 h | EC50 [1, 4]: 96 ± 0.05 nM | IC50 (hNTS1 receptor): 500 ± 22 nM | EC50 [2]: 96 ± 0.07 nM

Structure (SMILES): C=CCNCCCC[C@H](N)C(=O)N[C@@H](CCCCN)C(=O)N1CCC[C@H]1C(=O)N[C@@H](Cc1ccc(O)c(CC=C)c1)C(=O)N[C@H](C(=O)N[C@@H](CC(C)C)C(=O)O)C(C)CC (stereo partly drawn) [Compound 1-L, nonenoic acid KPY(All)IL]
Plasma half-life (Plasma stability assay; [3]): 4 h

Structure (SMILES): CCOC(=O)[C@H](CC(C)C)NC(=O)[C@@H](NC(=O)[C@H](Cc1c[nH]c2ccccc12)NC(=O)[C@@H]1CCCN1C(=O)[C@H](CCCCN)NC[C@@H](N)CCCCN)C(C)(C)C [PD149163, H-Lys-[ψCH2NH]-Lys-Pro-Trp-tertLeu-Leu-OEt, reference compound] (H-[X3]PW[Tle]L-OEt)
Arterial blood pressure response (rats): triphasic | Blood pressure drop, first phase (rats): about −25 mmHg | Blood pressure in phase 3 (rats): more sustained
